# Columns and labels:
# [1] = tested on: Green Peach Aphid (Myzus Persicae); assay: Insecticidal test for green peach aphid in foliar spray assay (col. MYZUPE); assay type: in vivo; details: Myzus persicae, 72 h, green peach aphid, read-out: MYZUPE 200 ppm (Corrected % Control, rating)
# How it was run: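 Cabbage seedlings with 2-3 true leaves, infested with 20-50 wingless adult and nymph aphids one day earlier, sprayed to runoff at 200 ppm (acetone/methanol stock diluted in 0.025% Tween 20), four pots per treatment. After 3 days at ~25 °C, 40% RH, live aphids counted; corrected % control versus solvent-sprayed plants.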
# [2] = tested on: Sweetpotato Whitefly-Crawler (Bemisia Tabaci); assay: Insecticidal test for sweetpotato whitefly-crawler in foliar spray assay (col. BEMITA); assay type: in vivo; details: Bemisia tabaci, sweetpotato whitefly-crawler, read-out: BEMITA 200 ppm (Corrected % Control, rating)
# How it was run: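 Cotton plants (one 3-5 cm true leaf) infested with whitefly eggs (100-300/plant), held 5-6 days at 82° F, 50% RH until crawlers developed. Sprayed to runoff at 200 ppm (acetone stock diluted in 0.025% Tween 20), four plants per treatment. Live nymphs counted after 8-9 days; % control by Abbott's correction versus solvent check.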
SMILES,pest or weed control at 200 ppm [1] [%],pest or weed control at 200 ppm [2] [%],melting point [°C]
CSCC(C)C(=O)Nc1sc(-c2ccc(F)nc2)nc1C (stereo not drawn) [Compound 159],80 to 100,80 to 100,143 to 146
CCOC(=O)c1cncc(-c2nc(C)c(NC(=O)OC(C)(C)C)s2)c1 [Compound 160],< 80,< 80,124 to 128
Cc1nc(-c2cncc(F)c2)sc1NC(=O)C(C)C/S(C)=N\C#N (stereo not drawn) [Compound 163],80 to 100,< 80,75 to 81
CSCC(C)C(=O)Nc1sc(-c2ccc(Cl)nc2)nc1C (stereo not drawn) [Compound 169],< 80,80 to 100,142 to 146
CSCC(C)C(=O)Nc1sc(-c2cncc(C#N)c2)nc1C (stereo not drawn) [Compound 172],80 to 100,80 to 100,127 to 131
COc1cncc(-c2nc(C)c(NC(=O)OC(C)(C)C)s2)c1 [Compound 175],< 80,< 80,136 to 140
CSCCNC(=O)N(C)c1sc(-c2cccnc2)nc1C [Compound 177],80 to 100,< 80,115 to 119
CSCCOC(=O)Nc1sc(-c2cccnc2)nc1C [Compound 181],80 to 100,< 80,123 to 126
CC(=O)Nc1sc(-c2cccnc2)nc1C [Compound 186],< 80,< 80,180 to 182
Cc1nc(-c2cccnc2)sc1NC(=O)[C@H](C)NC(=O)OC(C)(C)C [Compound 187],80 to 100,< 80,166 to 169
CC(=O)N(C)c1sc(-c2cccnc2)nc1C [Compound 193],80 to 100,80 to 100,127 to 130
COC(=O)CCC(=O)Nc1sc(-c2cccnc2)nc1C [Compound 197],80 to 100,< 80,151 to 153
COCC(C)(C)OC(=O)Nc1sc(-c2cccnc2)nc1C [Compound 199],80 to 100,80 to 100,120 to 123
Cc1nc(-c2cccnc2)sc1NC(=O)OCc1ccccc1 [Compound 201],< 80,< 80,137 to 139
COC(=O)Nc1sc(-c2cccnc2)nc1C [Compound 202],< 80,< 80,159 to 160
C=CC(=O)N(C(=O)OC(C)(C)C)c1sc(-c2cccnc2)nc1C [Compound 205],80 to 100,80 to 100,68 to 70
Cc1nc(-c2cccnc2)sc1NC(=O)CCCCl [Compound 209],80 to 100,< 80,144 to 147
CSC(C)(C)CC(=O)N(C)c1sc(-c2cncc(F)c2)nc1C [Compound 212],80 to 100,80 to 100,73 to 80
CS[C@H]1CC1C(=O)N(C)c1sc(-c2cncc(F)c2)nc1C (stereo partly drawn) [Compound 216],80 to 100,80 to 100,88 to 90
CSC(C)(C)CC(=O)Nc1sc(-c2cncc(F)c2)nc1C [Compound 217],80 to 100,< 80,123 to 126
Cc1nc(-c2cncc(F)c2)sc1NC(=O)C1CCSC1 (stereo not drawn) [Compound 219],80 to 100,< 80,209 to 213

# — patent publication US8853246B2 (Dow AgroSciences LLC, priority 2009, dated 2014)
